`*/C(=C(/*)c1cccc([Si](C)(C)C)c1)c1ccccc1` (repeat unit) registered a glass transition temperature of 200.00 °C.
Under `*/C=C(\C#N)C(=O)OCCCCCCOC(=O)/C(C#N)=C/c1ccc2c(c1)c1cc(*)ccc1n2CCCCCCCCCCCn1c2ccccc2c2ccccc21` (repeat unit) stands 63.00 °C; under `*/C=C/c1cc(OCCCCCCC)c(/C=C/c2ccc(*)cc2)cc1OCCCCCCC` (repeat unit), 46.00 °C; under `*/C=C/c1cc(OCCCCCCCC)c(/C=C/c2ccc(*)c3nsnc23)cc1OCCCCCCCC` (repeat unit), 153.00 °C.
Under `*/C=C/c1cc(OCCCCCCCCC)c(/C=C/c2ccc(*)cc2)cc1OCCCCCCCCC` (repeat unit) stands 44.00 °C.
Under `*/C=C/c1cc(OCCCCCCCCCCCC)c(/C=C/c2ccc(*)cc2)cc1OCCCCCCCCCCCC` (repeat unit) stands 38.00 °C; under `*/C=C/c1ccc(/C=C/c2ccc3c(c2)Sc2cc(*)ccc2N3c2ccc(OCCCCCCCCCCCC)cc2)s1` (repeat unit), 155.00 °C; under `*=Cc1cc(OCCCCCCCC)c(/C=N/c2ccc(N=*)cc2)cc1OCCCCCCCC` (repeat unit), 32.70 °C.
On to `*CC(=O)C(*)c1ccccc1` (repeat unit), for which the glass transition temperature was found to be 110.00 °C.
With `*CC(=O)O*` (repeat unit) the figure was 45.00 °C; with `*CC(C)(C)C1C(=O)N(C(C)C)C(=O)C1*` (repeat unit), 145.00 °C; with `*CC(C)(C)C1C(=O)N(C)C(=O)C1*` (repeat unit), 156.50 °C.
`*CC(C)(C)C1C(=O)N(c2c(CC)cccc2CC)C(=O)C1*` (repeat unit) returned a glass transition temperature of 210.00 °C.
In turn, `*CC(C)C(*)(C)C` (repeat unit) had a glass transition temperature of 37.00 °C.
`*CC(C)CC(*)(C)C(=O)OC` (repeat unit) displayed a glass transition temperature of 16.00 °C.
With `*CC(CBr)O*` (repeat unit) the figure was -14.00 °C.
`*CC(CC(*)(C#N)C#N)c1ccc(F)cc1` (repeat unit) had a glass transition temperature of 180.00 °C.
Under `*CC(CC(*)(C#N)C#N)c1ccc(OC(C)=O)cc1` (repeat unit) stands 180.00 °C; under `*CC(CCCC)O*` (repeat unit), -69.00 °C; under `*CC(COC(=O)CCCCCN1C(=O)C2C3C=CC(C3)C2C1=O)O*` (repeat unit), 1.00 °C.
Under `*CC(COC(=O)c1ccc(N2C(=O)C3C4C=CC(C4)C3C2=O)cc1)O*` (repeat unit) stands 62.50 °C; under `*CC(COC(C)(C)C)O*` (repeat unit), -24.00 °C.
`*CC(COc1ccc(-c2ccc(OC)cc2)cc1)O*` (repeat unit) had a glass transition temperature of 111.00 °C.
With `*CC(COc1ccccc1)O*` (repeat unit) the figure was 42.00 °C; with `*CC(CS(=O)(=O)CCCC)O*` (repeat unit), 37.00 °C; with `*CC(CSC(C)C)O*` (repeat unit), -44.00 °C.
Under `*CC(CSC)O*` (repeat unit) stands -37.00 °C.
Under `*CC(CSCC)O*` (repeat unit) stands -57.00 °C; under `*CC(CSCCC)O*` (repeat unit), -61.00 °C.
For `*CC(C[Si](*)(C)C)c1ccccc1` (repeat unit), the glass transition temperature was -5.00 °C.
With `*CC(Cc1ccc(-c2ccccc2)cc1)C[Si](*)(C)C` (repeat unit) the figure was 28.00 °C; with `*CC(F)(F)C1(F)CC(CC(O)(C(F)(F)F)C(F)(F)F)CC1*` (repeat unit), 98.00 °C.
Molecule `*CC(O)CCCCC(O)CN(*)c1ccc(N(C)C)cc1` (repeat unit) displayed a glass transition temperature of 72.00 °C.
With `*CC(O)CN(*)c1cc(C)c(/N=N/c2ccc(C#N)cc2)c(C)c1` (repeat unit) the figure was 150.00 °C; with `*CC(O)CN(*)c1cc(C)c(/N=N/c2ccc(Cl)cc2)c(C)c1` (repeat unit), 150.00 °C; with `*CC(O)CN(*)c1cc(C)c(/N=N/c2ccc([N+](=O)[O-])cc2)c(C)c1` (repeat unit), 152.00 °C.
With `*CC(O)CN(*)c1ccc(/N=N/c2ccc(C(=O)O)cc2)cc1` (repeat unit) the figure was 99.00 °C; with `*CCCC(O)CN(CCCC)c1ccc(C#Cc2ccc(S(*)(=O)=O)cc2)cc1` (repeat unit), 48.00 °C; with `*CCCCCCCCCCN/C(C)=N/*` (repeat unit), 80.00 °C.
With `*CCCCCCCCNC(=O)CC(=O)N*` (repeat unit) the figure was 55.00 °C; with `*CCCCCCCCn1c2ccccc2c2cc(/C=C(\C#N)C(=O)OCCCCCCOC(=O)/C(C#N)=C/c3ccc4c(c3)c3ccccc3n4*)ccc21` (repeat unit), 96.70 °C; with `*CCCCCCCn1c2ccccc2c2cc(/C=C(\C#N)C(=O)OCCCCCCOC(=O)/C(C#N)=C/c3ccc4c(c3)c3ccccc3n4*)ccc21` (repeat unit), 107.80 °C.
`*CCCCCCNC(=O)CC(C)(C)c1ccc(C(C)(C)CC(=O)N*)cc1` (repeat unit) yielded a glass transition temperature of 91.00 °C.
Under `*CCCCCCNC(=O)CC(C)c1ccc(C(C)CC(=O)N*)cc1` (repeat unit) stands 88.00 °C; under `*CCCCCCOC(=O)CC(=O)OCCCCCCOc1ccc(-n2on2-c2ccc(O*)cc2)cc1` (repeat unit), 16.00 °C; under `*CCCCCCOc1c(OC)cc(/C=C/c2ccc(/C=C/c3cc(OC)c(O*)c(OC)c3)cc2)cc1OC` (repeat unit), 90.00 °C.
With `*CCCCCCn1c2ccccc2c2cc(/C=C(\C#N)C(=O)OCCCCCCOC(=O)/C(C#N)=C/c3ccc4c(c3)c3ccccc3n4*)ccc21` (repeat unit) the figure was 117.70 °C; with `*CCCCCOc1ccc(/C=C/C(=O)OCCN(CCOC(=O)/C=C/c2ccc(O*)cc2)c2ccc(/N=N/c3ccc([N+](=O)[O-])cc3)cc2)cc1` (repeat unit), 92.00 °C.
With `*CCCCOCC(O)CN(CC(O)CO*)c1ccc(N(C)C)cc1` (repeat unit) the figure was 31.00 °C.
`*CCCS(=O)(=O)c1ccc(/N=N/c2ccc(N(CCCC)CC(=O)O*)cc2)cc1` (repeat unit) gave a glass transition temperature of 92.40 °C.
With `*NC(C)CC(*)=O` (repeat unit) the figure was 125.00 °C; with `*Nc1ccc(-c2ccc(NC(=O)Cc3cc(CC(*)=O)c(C)cc3C)cc2)cc1` (repeat unit), 230.00 °C; with `*Nc1cccc(NC(=O)Cc2cc(CC(*)=O)c(C)cc2C)c1` (repeat unit), 222.00 °C.
Under `*OC(C)CC(*)=O` (repeat unit) stands 3.40 °C.
Consider `*OC(CCCCC)CC(*)=O` (repeat unit), for which the glass transition temperature was -33.00 °C.
Under `*OC(CCCCCC)CC(*)=O` (repeat unit) stands -47.00 °C.
Under `*OC(CCCCCCC=C)CC(*)=O` (repeat unit) stands -50.00 °C; under `*Oc1ccc(/C=C/c2cc(OCCCCCCCC)c(/C=C/c3ccc(Oc4cc5c6c(ccc7c8c(*)cc9c%10c(ccc(c4c67)c%108)C(=O)N(CCCCCCCC)C9=O)C(=O)N(CCCCCCCC)C5=O)cc3)cc2OCCCCCCCC)cc1` (repeat unit), 103.00 °C.
For the molecule `*Oc1ccc(C2(c3ccc(Oc4ccc(/C=C/C(=O)c5ccc(*)cc5)cc4)cc3)c3ccccc3-c3ccccc32)cc1` (repeat unit), the glass transition temperature came out at 195.00 °C.
`*Oc1ccc(NC(=O)/C=C/c2ccc(/C=C/C(=O)Nc3ccc(*)cc3)cc2)cc1` (repeat unit): the glass transition temperature was 205.00 °C.
Molecule `*Oc1ccc(S(=O)(=O)c2ccc(Oc3ccc(/C=C4\CCC/C(=C\c5ccc(*)cc5)C4=O)cc3)cc2)cc1` (repeat unit) showed a glass transition temperature of 190.00 °C.
`*Oc1ccc(S(=O)(=O)c2ccc(Oc3ccc(C4(c5ccc(Oc6ccc(S(=O)(=O)c7ccc(Oc8ccc(/C=C9\CCC/C(=C\c%10ccc(*)cc%10)C9=O)cc8)cc7)cc6)cc5)CCCCC4)cc3)cc2)cc1` (repeat unit) registered a glass transition temperature of 190.00 °C.
With `*Oc1ccc(S(=O)(=O)c2ccc(Oc3ccc(C4(c5ccc(Oc6ccc(S(=O)(=O)c7ccc(Oc8ccc(/C=C9\CCCC/C(=C\c%10ccc(*)cc%10)C9=O)cc8)cc7)cc6)cc5)CCCCCC4)cc3)cc2)cc1` (repeat unit) the figure was 196.00 °C.
`*SCC(=O)N/N=C/c1ccc(OCCCCCCCCCCOc2ccc(/C=N/NC(=O)CSc3nnc(*)s3)cc2OC)c(OC)c1` (repeat unit) displayed a glass transition temperature of 156.00 °C.
`*c1ccc(/C=C/c2cc(OCCCCCCCC)c(/C=C/c3ccc(N(*)c4ccccc4)cc3)cc2OCCCCCCCC)cc1` (repeat unit) had a glass transition temperature of 74.00 °C.
`*c1ccc(C(=O)OCCCCCCCCCCOc2ccc(/C=C/C(=O)/C=C/c3ccc(OCCCCCCCCCCOC(=O)c4ccc(-c5nnc(*)o5)cc4)cc3)cc2)cc1` (repeat unit) registered a glass transition temperature of 58.00 °C.
With `*c1ccc(C(=O)OCCCCCCCCOc2ccc(/C=C/C(=O)/C=C/c3ccc(OCCCCCCCCOC(=O)c4ccc(-c5nnc(*)o5)cc4)cc3)cc2)cc1` (repeat unit) the figure was 59.00 °C; with `*c1ccc(C(=O)OCCCCCCOc2ccc(/C=C/C(=O)/C=C/c3ccc(OCCCCCCOC(=O)c4ccc(-c5nnc(*)o5)cc4)cc3)cc2)cc1` (repeat unit), 62.00 °C.
As to `*c1ccc(Oc2ccc(/C=C/c3ccc(Oc4ccc(-c5nnc(*)o5)cc4)cc3)cc2)cc1` (repeat unit), the glass transition temperature came to 215.00 °C.

The values are drawn from the PolyMetriX glass transition set.
